The target of the experiment is Cell division control protein 42 homolog (Homo sapiens) (UniProt P60953). The experiment can be described thus: concentration effect on fluorescent GTP binding to Cdc42 – biochemical, nucleotide-depleted protein, Mg buffer, constant GTP, mechanism study for Ras-family GTPase inhibitor project, dose response (AID 2376). The conditions noted are these: GST-Cdc42 beads, BODIPY-GTP binding, flow cytometry. (In general: In flow cytometry, cells or beads pass a laser one at a time.)
Cell division control protein 42 homolog (Homo sapiens), sequence (P60953 whole entry, looked up): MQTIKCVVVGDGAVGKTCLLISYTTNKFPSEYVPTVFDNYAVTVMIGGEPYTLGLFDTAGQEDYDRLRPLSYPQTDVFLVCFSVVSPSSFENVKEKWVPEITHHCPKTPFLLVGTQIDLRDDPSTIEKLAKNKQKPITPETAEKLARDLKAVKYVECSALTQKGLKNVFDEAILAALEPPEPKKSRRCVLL

`COc1ccc(C2CC(c3ccccc3)=NN2c2ccc(S(N)(=O)=O)cc2)cc1` (stereo unspecified): the EC50 was 263 nM.

The EC50 is the concentration at which the effect is half-maximal.

The record behind these values is PubChem BioAssay AID2376 (NMMLSC, 2010).
